Test results as given in ChEMBL document CHEMBL1143627, “Enantiomerically pure hexahydropyrazinoquinolines as potent and selective dopamine 3 subtype receptor ligands” (J Med Chem, 2005).
pKi: −log10 of the molar value.

Key:
D(2) dopamine receptor = D(2) dopamine receptor (Rattus norvegicus, UniProt P61169); assay: Inhibition of [3H]spiperone binding to Dopamine receptor D2-like in rat caudate-putamen membrane; format: cell membranes
D(3) dopamine receptor = D(3) dopamine receptor (Rattus norvegicus, UniProt P19020); assay: biochemical
Sequence of D(3) dopamine receptor (P19020 whole entry): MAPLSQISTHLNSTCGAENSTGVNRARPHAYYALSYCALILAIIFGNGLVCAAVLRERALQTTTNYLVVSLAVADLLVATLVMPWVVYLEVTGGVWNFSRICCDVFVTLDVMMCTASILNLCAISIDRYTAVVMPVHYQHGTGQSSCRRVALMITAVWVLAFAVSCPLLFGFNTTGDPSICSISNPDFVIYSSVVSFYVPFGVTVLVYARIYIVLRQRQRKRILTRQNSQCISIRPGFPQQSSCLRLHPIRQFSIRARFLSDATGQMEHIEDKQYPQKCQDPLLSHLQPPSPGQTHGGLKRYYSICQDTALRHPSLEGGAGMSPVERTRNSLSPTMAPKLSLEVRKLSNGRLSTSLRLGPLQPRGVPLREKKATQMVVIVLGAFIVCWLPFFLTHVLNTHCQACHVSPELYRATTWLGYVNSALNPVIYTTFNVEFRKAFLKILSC
Description: Inhibition of [3H]-PD 128907 binding to Dopamine receptor D3 in rat ventral striatum

Sequence of D(2) dopamine receptor (P61169 whole entry): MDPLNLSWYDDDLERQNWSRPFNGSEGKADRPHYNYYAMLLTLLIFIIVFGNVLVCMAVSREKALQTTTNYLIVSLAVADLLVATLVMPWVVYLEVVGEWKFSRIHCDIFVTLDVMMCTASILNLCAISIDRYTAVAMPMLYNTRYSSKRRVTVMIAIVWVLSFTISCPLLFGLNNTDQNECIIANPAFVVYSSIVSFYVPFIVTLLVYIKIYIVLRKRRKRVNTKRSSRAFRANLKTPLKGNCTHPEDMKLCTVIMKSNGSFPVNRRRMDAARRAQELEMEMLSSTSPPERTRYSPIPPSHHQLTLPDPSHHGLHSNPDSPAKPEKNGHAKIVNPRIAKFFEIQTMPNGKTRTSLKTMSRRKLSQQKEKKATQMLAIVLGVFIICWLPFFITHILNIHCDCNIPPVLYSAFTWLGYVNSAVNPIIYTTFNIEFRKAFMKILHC

pKi (D(2) dopamine receptor)	pKi (D(3) dopamine receptor)	SMILES
5.80		O=C(NCCCCN1CCN2c3ccccc3CCC2C1)c1ccc2ccccc2c1 (stereo not drawn)
< 4.30	5.33	COc1ccc2c(c1)CC[C@@H]1CN(CCN3CCC(NC(=O)c4ccc5ccccc5c4)CC3)CCN21
6.23	7.72	O=C(NCCCCN1CCN2c3ccccc3CC[C@@H]2C1)c1ccc2ccccc2c1
< 4.00	7.17	COc1ccc2c(c1)CC[C@@H]1CN(CCCCNC(=O)c3ccc4ccccc4c3)CCN21
6.00	7.02	COc1ccc2c(c1)N1CCN(CCCCNC(=O)c3ccc4ccccc4c3)C[C@@H]1CC2
6.51		COc1cccc2c1N1CCN(CCCCNC(=O)c3ccc4ccccc4c3)C[C@H]1CC2
< 4.30	6.90	COc1ccc2c(c1)CC[C@H]1CN(CCCCNC(=O)c3ccc4ccccc4c3)CCN21
< 4.60	5.15	COc1ccc2c(c1)CC[C@H]1CN(CCN3CCC(NC(=O)c4ccc5ccccc5c4)CC3)CCN21
6.61		O=C(CCCN1CCN2c3ccccc3CCC2C1)c1ccc(F)cc1 (stereo not drawn)
5.76	7.36	COc1ccc2c(c1)N1CCN(CCCCNC(=O)c3ccc4ccccc4c3)C[C@H]1CC2
6.18	8.03	COc1cccc2c1CC[C@H]1CN(CCCCNC(=O)c3ccc4ccccc4c3)CCN21
7.06		COc1cccc2c1N1CCN(CCCCNC(=O)c3ccc4ccccc4c3)C[C@@H]1CC2
6.74	7.80	O=C(NCCCCN1CCN2c3ccccc3CC[C@H]2C1)c1ccc2ccccc2c1
6.19	8.08	COc1cccc2c1CC[C@@H]1CN(CCCCNC(=O)c3ccc4ccccc4c3)CCN21

SMILES	pKi (D(2) dopamine receptor)	pKi (D(3) dopamine receptor)
COc1ccc2c(c1)CC[C@H]1CN(CCC3CCC(NC(=O)c4ccc5ccccc5c4)CC3)CCN21 (stereo partly drawn)	< 5.00	8.00
COc1ccc2c(c1)CC[C@@H]1CN(CC[C@H]3CC[C@H](NC(=O)c4ccc5ccccc5c4)CC3)CCN21	< 5.00	8.24
